Test results reported in paper PMC6329626 (British Journal of Pharmacology, 2018).
Read-outs that look alike come from different tables or passages of the source.

Columns and labels:
[1] = system: CYP3A (flucloxacillin 5′-hydroxylation); experiment: Inhibition of 5′-HM-FLX formation by pooled HLM by CYP-specific inhibitors; format: biochemical, human; conditions: human, pooled human liver microsomes, probe flucloxacillin (formation of 5′-HM-FLX), 10 and 100 μM
pooled HLM [2] = experiment: as above; format: biochemical, human; conditions: 10 μM inhibitor; pooled HLM
HLM [3] = conditions: 25 μM sulfaphenazole; ref Lakehal et al., 2001; cited from earlier work
[4] = biological target: CYP3A4 (testosterone 6β-hydroxylation) in HLM (Homo sapiens, UniProt P08684); experiment: Inhibition by sulfaphenazole of testosterone hydroxylation in HLM; format: biochemical
CYP3A4 (testosterone 6β-hydroxylation) in HLM, sequence (P08684 whole entry): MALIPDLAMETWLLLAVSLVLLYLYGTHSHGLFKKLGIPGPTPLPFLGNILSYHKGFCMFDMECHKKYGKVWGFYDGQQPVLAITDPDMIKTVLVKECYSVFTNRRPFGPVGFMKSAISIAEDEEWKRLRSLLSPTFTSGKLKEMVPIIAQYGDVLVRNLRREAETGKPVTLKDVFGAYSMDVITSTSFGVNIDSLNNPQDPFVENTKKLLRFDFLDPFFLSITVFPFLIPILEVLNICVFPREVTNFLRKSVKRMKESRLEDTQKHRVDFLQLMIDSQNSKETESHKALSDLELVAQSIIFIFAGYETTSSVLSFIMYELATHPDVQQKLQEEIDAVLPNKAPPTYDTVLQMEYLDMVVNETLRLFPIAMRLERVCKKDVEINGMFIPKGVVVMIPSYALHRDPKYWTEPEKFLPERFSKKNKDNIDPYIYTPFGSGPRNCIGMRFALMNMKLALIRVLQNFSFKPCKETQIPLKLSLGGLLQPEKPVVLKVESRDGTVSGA

HLM [5] = conditions: ref Towles et al., 2016; cited from earlier work
recombinant CYP3A7 = recombinant CYP3A7 (Homo sapiens, UniProt P24462); experiment: Inhibition by sulfaphenazole of CYP3A7 Supersomes; format: biochemical; conditions: testosterone 50 μM
HLM from 16 donors = format: in vitro ADME, human; conditions: for Pearson's r, FLX hydroxylation vs phenacetin O-deethylation: CYP1A2; for Pearson's r, FLX hydroxylation vs coumarin 7-hydroxylation: CYP2A6; for Pearson's r, FLX hydroxylation vs diclofenac 4′-hydroxylation: CYP2C9
recombinant human CYP3A4 = recombinant human CYP3A4 (Homo sapiens, UniProt P08684); experiment: Enzyme kinetics of flucloxacillin hydroxylation by CYP3A4 Supersomes; conditions: 100 nM CYP3A4 Supersomes, 10 min
recombinant human CYP3A4, sequence (P08684 whole entry): as above

pooled HLM [6] = experiment: Enzyme kinetics of 5′-HM-FLX formation from flucloxacillin by pooled HLM; format: in vitro ADME, human; conditions: 0.5 mg·mL^−1 pooled HLM, 10 min, Michaelis–Menten fit
biliary epithelial cells = conditions: ref Lakehal et al., 2001; cited from earlier work
[7] = read-out: Average Cmax in patients; patients taking 1000 mg orally; cited from earlier work
[8] = substrate: Cc1onc(-c2c(F)cccc2Cl)c1C(=O)N[C@@H]1C(=O)N2[C@@H]1SC(C)(C)[C@@H]2C(=O)O; experiment: cells, lysate or membranes named; format: in vitro ADME, human; conditions: other: 100 nM CYP3A7 Supersomes, 10 min; pH 7.4; 37.0 °C

Work on `CC(=O)N1CCN(c2ccc(OCC3COC(Cn4ccnc4)(c4ccc(Cl)cc4Cl)O3)cc2)CC1` (stereo not shown) [ketoconazole] yielded an inhibition at 1 μM [1] of 50%.

For `COCCCC/C(=N\OCCN)c1ccc(C(F)(F)F)cc1` [fluvoxamine], the “Inhibition of 5′-HM-FLX formation” value (pooled HLM [2]) was “did not show significant inhibition”.

For `Nc1ccc(S(=O)(=O)Nc2ccnn2-c2ccccc2)cc1` [sulfaphenazole], the “Inhibition of HLM-catalysed hydroxylation of flucloxacillin” value (HLM [3]) is given as “no inhibition”, the “Inhibition of testosterone hydroxylation” value [4] is given as “but not testosterone hydroxylation” and the “Inhibition of bioactivation of hydroxylapatinib by HLM” value (HLM [5]) is given as “significantly inhibited”. The “Inhibition of 6β-hydroxylation of testosterone” value (recombinant CYP3A7) was “not affected”.

For `Cc1onc(-c2c(F)cccc2Cl)c1C(=O)N[C@@H]1C(=O)N2[C@@H]1SC(C)(C)[C@@H]2C(=O)O` [flucloxacillin], the “Pearson's r, FLX hydroxylation vs phenacetin O-deethylation” value (HLM from 16 donors; 10 μM FLX) was 0.04, the “Pearson's r, FLX hydroxylation vs phenacetin O-deethylation” value (HLM from 16 donors; 100 μM FLX) was 0.10 and the “Pearson's r, FLX hydroxylation vs coumarin 7-hydroxylation” value (HLM from 16 donors; 10 μM FLX) was 0.45. The “Pearson's r, FLX hydroxylation vs coumarin 7-hydroxylation” value (HLM from 16 donors; 100 μM FLX) was 0.45, the “Pearson's r, FLX hydroxylation vs amodiaquine N-deethylation” value (HLM from 16 donors; CYP2C8, 10 μM FLX) was 0.50 and the “Pearson's r, FLX hydroxylation vs diclofenac 4′-hydroxylation” value (HLM from 16 donors; 10 μM FLX) was 0.78. For the same molecule, the “Pearson's r, FLX hydroxylation vs diclofenac 4′-hydroxylation” value (HLM from 16 donors; 100 μM FLX) was 0.58, the “Pearson's r, FLX hydroxylation vs mephenytoin 4′-hydroxylation” value (HLM from 16 donors; CYP2C19, 10 μM FLX) was 0.45 and the “Pearson's r, FLX hydroxylation vs midazolam 1′-hydroxylation” value (HLM from 16 donors; CYP3A4, 10 μM FLX) was 0.58. For the same molecule, the “Pearson's r, FLX hydroxylation vs testosterone 6β-hydroxylation” value (HLM from 16 donors; CYP3A4, 10 μM FLX) was 0.69, the “K M of 5′-HM-FLX formation” value (recombinant human CYP3A4) was 124 ± 15 µM and the “K M of 5′-HM-FLX formation” value (pooled HLM [6]) was 284 ± 38 µM. The “Vmax of 5′-HM-FLX formation” value (pooled HLM [6]) was 30 ± 2 pmol·min^−1·mg^−1 protein, the “Cytotoxicity to isolated biliary epithelial cells” value (biliary epithelial cells) was “without effect” and the Cmax [7] was 100 µM.

B1: recombinant human CYP3A7 (Homo sapiens) (protein)
chain: MDLIPNLAVETWLLLAVSLILLYLYGTRTHGLFKKLGIPGPTPLPFLGNALSFRKGYWTFDMECYKKYRKVWGIYDCQQPMLAITDPDMIKTVLVKECYSVFTNRRPFGPVGFMKNAISIAEDEEWKRIRSLLSPTFTSGKLKEMVPIIAQYGDVLVRNLRREAETGKPVTLKHVFGAYSMDVITSTSFGVSIDSLNNPQDPFVENTKKLLRFNPLDPFVLSIKVFPFLTPILEALNITVFPRKVISFLTKSVKQIKEGRLKETQKHRVDFLQLMIDSQNSKDSETHKALSDLELMAQSIIFIFAGYETTSSVLSFIIYELATHPDVQQKVQKEIDTVLPNKAPPTYDTVLQLEYLDMVVNETLRLFPVAMRLERVCKKDVEINGMFIPKGVVVMIPSYVLHHDPKYWTEPEKFLPERFSKKNKDNIDPYIYTPFGSGPRNCIGMRFALVNMKLALVRVLQNFSFKPCKETQIPLKLRFGGLLLTEKPIVLKAESRDETVSGA
Work on B1 yielded a kcat [8] of 193 ± 7 pmol·min^−1·nmol^−1 P450.
